The experiment has as its target High affinity nerve growth factor receptor (Homo sapiens, UniProt P04629). Description: Kinase Binding Assay: TrkA binding activity was determined in a TrkA LanthaScreen™ Eu Kinase Binding Assay. 5 nM His-tagged recombinant human TrkA (6HIS tagged cytoplasmic domain from Invitrogen, Catalog No. PV3144) was incubated with 4 nM Alexa-Fluor® Tracer 236 (Invitrogen Cat. No. PV5592), 2 nM biotinylated anti-His (Invitrogen Cat. No. PV6090), and 2 nM europium-labeled Streptavidin (Invitrogen Cat. No. PV5899), in buffer (25 mM MOPS, pH 7.5, 5 mM MgCl2, 0.005% Triton X-100). Three fold serial dilutions of compounds of the invention in DMSO were added to a final percentage of 2% DMSO. After 60-minute incubation at 22° C., the reaction was measured using the EnVision mutlimode plate reader (PerkinElmer) via TR-FRET dual wavelength detection at […]. The percent of control was calculated using a ratiometric emission factor.

SMILES strings stand for the structures.

High affinity nerve growth factor receptor, sequence (P04629 whole entry, the tested form may be a part): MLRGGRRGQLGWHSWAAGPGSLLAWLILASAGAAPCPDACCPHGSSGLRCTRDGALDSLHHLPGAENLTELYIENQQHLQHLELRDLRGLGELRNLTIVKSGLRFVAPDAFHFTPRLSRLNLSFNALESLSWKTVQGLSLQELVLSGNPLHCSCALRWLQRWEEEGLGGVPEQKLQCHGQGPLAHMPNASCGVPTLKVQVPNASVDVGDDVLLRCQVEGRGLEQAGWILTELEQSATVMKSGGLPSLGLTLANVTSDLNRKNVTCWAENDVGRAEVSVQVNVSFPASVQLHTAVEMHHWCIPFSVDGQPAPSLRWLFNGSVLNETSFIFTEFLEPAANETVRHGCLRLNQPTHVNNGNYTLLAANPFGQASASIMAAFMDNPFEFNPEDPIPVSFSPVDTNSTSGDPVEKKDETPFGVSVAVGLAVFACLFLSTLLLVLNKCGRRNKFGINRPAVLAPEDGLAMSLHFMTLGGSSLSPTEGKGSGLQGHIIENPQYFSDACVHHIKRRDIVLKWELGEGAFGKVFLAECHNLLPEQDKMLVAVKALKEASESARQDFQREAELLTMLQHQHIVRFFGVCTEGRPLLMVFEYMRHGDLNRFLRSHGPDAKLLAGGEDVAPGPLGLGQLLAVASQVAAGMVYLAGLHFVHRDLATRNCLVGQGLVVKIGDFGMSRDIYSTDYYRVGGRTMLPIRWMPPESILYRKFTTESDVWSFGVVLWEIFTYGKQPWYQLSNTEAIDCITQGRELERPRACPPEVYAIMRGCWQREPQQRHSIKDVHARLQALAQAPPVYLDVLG

As to `COCCN1C[C@@H](NC(=O)Nc2c(C)c(-c3cncc(OC)c3)nn2-c2ccccc2)[C@H](c2ccc(F)c(F)c2)C1`, the IC50 was under 100 nM.

As a reminder, the IC50 is the concentration at which inhibition is half-maximal.

The values are drawn from ChEMBL document CHEMBL5726782, “N-pyrrolidinyl,N′-pyrazolyl-urea, thiourea, guanidine and cyanoguanidine compounds as TrkA kinase inhibitors” (2018).
